Laboratory results as given in US12263479B2, “Array microfluidic chip and method of antibiotic susceptibility testing” (MEDFLUID CO., LTD., priority 2021, dated 2025).
≈ marks a conversion by molar mass, not a printed value. Where two headings read alike, the source gives them in different places.

Columns and labels:
E. coli ATCC25922 [1] = details: cited from earlier work
S. aureus ATCC29213 [2] = test: antibiotic susceptibility testing on the array microfluidic chip (redox indicator discoloration); assay type: cell-based, Staphylococcus aureus; details: 5 hours and 30 minutes
Text: (§1) In the present experiment, the array microfluidic chip of the present disclosure is used to perform the antibiotic susceptibility testing on Escherichia coli ATCC25922 (“E. coli ATCC25922” hereafter) and Staphylococcus aureus ATCC29213 (“S. aureus ATCC29213” hereafter) to three antibiotics, namely Amikacin, Gentamicin and Vancomycin.
(§2) In the experiment, the dried powders of Amikacin, Gentamicin or Vancomycin are respectively placed in different reaction wells of the array microfluidic chip with different contents, and then the array microfluidic chip is sealed and keeps refrigerated. Next, redox indicators with proper amounts are respectively added to the bacteria-containing mediums including E. coli ATCC25922 or S. aureus ATCC29213, and the bacteria-containing mediums are transported to different reaction wells of different array microfluidic chips and then mixed with the antibiotic powders with different contents thereof so as to form the reaction solutions including different concentrations of antibiotics.
Next, the array microfluidic chips are placed in the incubator and cultured at 37° C., and the antibiotic susceptibilities of E. coli ATCC25922 and S. aureus ATCC29213 to Amikacin, Gentamicin and Vancomycin are further assessed based on the discoloration of the reaction solutions. […]

E. coli ATCC25922 [3] = test: as above; assay type: cell-based, Escherichia coli; details: for MIC: Escherichia coli, read-out: minimum inhibitory concentration (MIC)
Text: as §1, §2
Next, the array microfluidic chips are placed in the incubator and cultured at 37° C., and the antibiotic susceptibilities of E. coli ATCC25922 and S. aureus ATCC29213 to Amikacin, Gentamicin and Vancomycin are further assessed based on the discoloration of the reaction solutions. In detail, if E. coli ATCC25922 and S. aureus ATCC29213 can grow under the existence of a specific antibiotic with a particular concentration, the color of the reaction solution including the redox indicator will gradually change from blue to purple, and eventually to pink, and the discoloration can be observed on the array microfluidic chip directly. Therefore, the assessing time of the method of antibiotic susceptibility testing of the present disclosure can be greatly shortened.
Please refer to FIG. 10A, FIG. 10B, FIG. 10C and Table 2 simultaneously. […] Furthermore, in FIG. 10C, the far left one is the image of the independent well performed a negative control test, and it is noted that the testing result of the independent well is not shown in Table 2. […]

S. aureus ATCC29213 [4] = details: cited from earlier work

| Molecule | CLSI standard value MIC (E. coli ATCC25922 [1]) | MIC (S. aureus ATCC29213 [2]; Staphylococcus aureus, ATCC29213, 37° C., read-out: minimum inhibitory concentration) | MIC (E. coli ATCC25922 [3]; ATCC25922, array microfluidic chip, 37° C., 4 hours) | CLSI standard value MIC (S. aureus ATCC29213 [4]) | MIC (E. coli ATCC25922 [3]; ATCC25922, 4 h) | minimum inhibitory concentration (S. aureus ATCC29213 [2]; 37° C.) | minimum inhibitory concentration (MIC) (E. coli ATCC25922 [3]; array microfluidic chip, 37° C., 4 hours) |
| --- | --- | --- | --- | --- | --- | --- | --- |
| NCC[C@H](O)C(=O)N[C@@H]1C[C@H](N)[C@@H](O[C@H]2O[C@H](CN)[C@@H](O)[C@H](O)[C@H]2O)[C@H](O)[C@H]1O[C@H]1O[C@H](CO)[C@@H](O)[C@H](N)[C@H]1O [Amikacin] | 0.5˜4 μg/mL | 1 µg/mL (≈ 1.71 µM) | 1 µg/mL (≈ 1.71 µM) | 1˜4 μg/mL | – | – | – |
| CN[C@H](CC(C)C)C(=O)N[C@H]1C(=O)N[C@@H](CC(N)=O)C(=O)N[C@H]2C(=O)N[C@H]3C(=O)N[C@H](C(=O)N[C@H](C(=O)O)c4cc(O)cc(O)c4-c4cc3ccc4O)[C@H](O)c3ccc(c(Cl)c3)Oc3cc2cc(c3O[C@@H]2O[C@H](CO)[C@@H](O)[C@H](O)[C@H]2O[C@H]2C[C@](C)(N)[C@H](O)[C@H](C)O2)Oc2ccc(cc2Cl)[C@H]1O [Vancomycin] | R-resistance | – | – | 0.5˜2 μg/mL | > 16 µg/mL | – | – |
| Gentamicin | 0.251 µg/mL | – | – | 0.12˜1 μg/mL | – | 0.25 µg/mL | 1 µg/mL |
